Reference: patent US9044520B2, “Compound accumulating in inflammatory site, diagnostic agent containing the compound in labeled state and its precursor compound for labeling” (Nihon Medi-Physics Co., Ltd., priority 2011, dated 2015)
Non-standard residues stand in square brackets, D forms with d. Residues, ends and D or L forms follow the SMILES beside them. *: point of attachment. Benzoyl(4-F) = O=C(c1ccc(F)cc1)*; Nle = CCCC[C@H](N)C(=O)O; For = O=C*

Molecular target: T1, formylated peptide receptor (FPR) (Homo sapiens, UniProt P21462)
T1 sequence (P21462 1-350): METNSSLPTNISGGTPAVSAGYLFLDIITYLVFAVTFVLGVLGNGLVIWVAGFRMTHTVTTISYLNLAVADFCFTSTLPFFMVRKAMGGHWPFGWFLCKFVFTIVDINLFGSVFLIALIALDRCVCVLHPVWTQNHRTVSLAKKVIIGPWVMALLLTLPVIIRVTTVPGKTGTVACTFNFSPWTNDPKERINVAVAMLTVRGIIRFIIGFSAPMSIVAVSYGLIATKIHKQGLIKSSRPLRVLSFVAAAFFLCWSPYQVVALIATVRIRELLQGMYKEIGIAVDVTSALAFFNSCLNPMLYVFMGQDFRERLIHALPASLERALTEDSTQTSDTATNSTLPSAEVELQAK
Assay: Binding assay/inhibition assay: binding affinity for formylated peptide receptor (FPR), displacement of [125I] Trp-Lys-Tyr-Met-Val-DMet
Details: read-out: Ki (Mean value ± SD)
Description: Each peptide having a different concentration (DMSO solution, 10 μL), 2 nmol/L [^125I] Trp-Lys-Tyr-Met-Val-DMet (10 μL) as radioligand, and FPR (10 μL) were added to a binding buffer (170 μL) and incubated at 25° C. for 1 hour, followed by collection by filtration (cell harvesters) using a GF/C filter coated with a polylysine buffer. After washing, radioactivity left on the filter was measured using a γ counter. [^125I] Trp-Lys-Tyr-Met-Val-DMet means a positive control having affinity for FPR and was obtained from PerkinElmer Co., Ltd. for use.
*Binding buffer: 50 mmol/L Hepes, pH 7.4, 5 mmol/L MgCl2, 1 mmol/L CaCl2, 0.2% BSA
Wash buffer: 50 mmol/L Hepes, pH 7.4, 500 mmol/L NaCl, 0.1% BSA
Polylysine buffer: Poly-L-lysine hydrobromate 100 mg/wash buffer 100 mL
Ki values in the table were calculated using the following equation (1).
IC50: Calculation from Graph Pad
[L]: Concentration of Radioligand (Adjusted to 0.2 nM)

Structure (SMILES)	Ki [nM]
CCCC[C@H](NC(=O)[C@H](Cc1ccccc1)NC(=O)[C@H](CC(C)C)NC(=O)[C@H](CCSC)NC=O)C(=O)N[C@@H](Cc1ccc(O)cc1)C(=O)N[C@H](CCCCNC(=O)c1ccc(F)cc1)C(N)=O [Peptide 1, formyl-Met-Leu-Phe-Nle-Tyr-DLys-ε([^19F]FB)-NH2] (For-MLF[Nle]Y[dK](Benzoyl(4-F))-NH2)	0.04 ± 0.04
CCCC[C@H](NC=O)C(=O)N[C@@H](CC(C)C)C(=O)N[C@@H](Cc1ccccc1)C(=O)N[C@@H](CCCC)C(=O)N[C@@H](Cc1ccc(O)cc1)C(=O)N[C@H](CCCCNC(=O)c1ccc(F)cc1)C(N)=O [Peptide 2, formyl-Nle-Leu-Phe-Nle-Tyr-DLys-ε([^19F]FB)-NH2] (For-[Nle]LF[Nle]Y[dK](Benzoyl(4-F))-NH2)	0.4 ± 0.36
CCCC[C@H](NC(=O)[C@H](Cc1ccccc1)NC(=O)[C@H](CC(C)C)NC(=O)[C@H](CCSC)NC=O)C(=O)N[C@@H](Cc1ccc(O)cc1)C(=O)N[C@H](CCCCN)C(=O)N[C@H](CCCCNC(=O)c1ccc(F)cc1)C(N)=O [Peptide 3, formyl-Met-Leu-Phe-Nle-Tyr-DLys-DLys-ε([^19F]FB)-NH2] (For-MLF[Nle]Y[dK][dK](Benzoyl(4-F))-NH2)	0.46 ± 0.07

The next lines start with the values.

Ki [nM]	Structure (SMILES)
1.22 ± 0.4	CCCC[C@H](NC=O)C(=O)N[C@@H](CC(C)C)C(=O)N[C@@H](Cc1ccccc1)C(=O)N[C@@H](CCCC)C(=O)N[C@@H](Cc1ccc(O)cc1)C(=O)N[C@H](CCCCN)C(=O)N[C@H](CCCCNC(=O)c1ccc(F)cc1)C(N)=O [Peptide 4, formyl-Nle-Leu-Phe-Nle-Tyr-DLys-DLys-ε([^19F]FB)-NH2] (For-[Nle]LF[Nle]Y[dK][dK](Benzoyl(4-F))-NH2)
0.63 ± 0.14	CCCC[C@H](NC(=O)[C@H](Cc1ccccc1)NC(=O)[C@H](CC(C)C)NC(=O)[C@H](CCSC)NC=O)C(=O)N[C@@H](Cc1ccc(O)cc1)C(=O)N[C@H](CCCCNC(=O)c1ccc(F)cc1)C(=O)N[C@H](CCCCN)C(N)=O [Peptide 5, formyl-Met-Leu-Phe-Nle-Tyr-DLys-ε([^19F]FB)-DLys-NH2] (For-MLF[Nle]Y[dK](Benzoyl(4-F))[dK]-NH2)
21.9 ± 12.7	CCCC[C@H](NC=O)C(=O)N[C@@H](CC(C)C)C(=O)N[C@@H](Cc1ccccc1)C(=O)N[C@@H](CCCC)C(=O)N[C@@H](Cc1ccc(O)cc1)C(=O)N[C@H](CCCCN)C(=O)N[C@H](CCCCN)C(=O)N[C@H](CCCCNC(=O)c1ccc(F)cc1)C(N)=O [Peptide 6, formyl-Nle-Leu-Phe-Nle-Tyr-DLys-DLys-DLys-ε([^19F]FB)-NH2, reference compound] (For-[Nle]LF[Nle]Y[dK][dK][dK](Benzoyl(4-F))-NH2)
